Test results as given in article PMC5799184, “Gs- versus Golf-dependent functional selectivity mediated by the dopamine D1 receptor” (Nature Communications, 2018).

Columns and labels:
[1] = biological target: T1, D1R-Rluc with β-arrestin-2-Venus (Homo sapiens, UniProt P21728); type: cell-based; conditions: agonist; GRK2 co-transfected; HEK-293T cells
T1 construct: gene DRD1; D1R with N-terminal signal peptide and Flag or Myc tag, fused to Renilla luciferase 8; GRK2 co-transfected; HEK-293T cells; with Beta-arrestin-2

D3R, Go activation = biological target: T2, D3R, Go activation (Homo sapiens, UniProt P35462); assay: BRET Go activation (GαoA-Rluc / γ2-GFP10); type: cell-based; conditions: partial agonist; HEK-293T cells
T2 construct: gene DRD3; N-terminal signal peptide and Flag or Myc tag; co-transfected GαoA91-Rluc, Gγ2-GFP10 and untagged Gβ2; HEK-293T cells

[2] = biological target: T3, D2R (D2SR), Go activation (Homo sapiens, UniProt P14416); conditions: partial agonist; HEK-293T cells
T3 construct: gene DRD2

[3] = biological target: T4, D1R-Rluc with Golf-Venus (D1L_GolfV) (Homo sapiens, UniProt P21728); assay: BRET receptor-Gα engagement, D1R-Rluc / Golf-Venus; type: cell-based; conditions: antagonist against […] SKF81297; HEK-293T cells
T4 construct: gene DRD1; D1R with N-terminal signal peptide and Flag or Myc tag, fused to Renilla luciferase 8; Gαolf with inserted Venus; G protein chaperone Ric8B co-transfected, untagged Gβ2 and Gγ7 available; HEK-293T cells
T4 sequence (P21728 whole entry, the tested form may be a part): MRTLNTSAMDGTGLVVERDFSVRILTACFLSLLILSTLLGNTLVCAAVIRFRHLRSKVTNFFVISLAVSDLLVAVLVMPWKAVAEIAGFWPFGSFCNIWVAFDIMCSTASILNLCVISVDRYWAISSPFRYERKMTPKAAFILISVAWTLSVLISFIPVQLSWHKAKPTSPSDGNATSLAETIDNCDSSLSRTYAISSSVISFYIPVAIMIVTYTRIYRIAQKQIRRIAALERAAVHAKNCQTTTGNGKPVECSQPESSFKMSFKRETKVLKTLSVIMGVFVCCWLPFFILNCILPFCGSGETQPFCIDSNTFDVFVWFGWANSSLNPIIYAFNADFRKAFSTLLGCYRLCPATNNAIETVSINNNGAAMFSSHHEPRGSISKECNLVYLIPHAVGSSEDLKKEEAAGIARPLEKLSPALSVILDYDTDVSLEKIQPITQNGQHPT
T4 sequence (P38405 2-381 partner): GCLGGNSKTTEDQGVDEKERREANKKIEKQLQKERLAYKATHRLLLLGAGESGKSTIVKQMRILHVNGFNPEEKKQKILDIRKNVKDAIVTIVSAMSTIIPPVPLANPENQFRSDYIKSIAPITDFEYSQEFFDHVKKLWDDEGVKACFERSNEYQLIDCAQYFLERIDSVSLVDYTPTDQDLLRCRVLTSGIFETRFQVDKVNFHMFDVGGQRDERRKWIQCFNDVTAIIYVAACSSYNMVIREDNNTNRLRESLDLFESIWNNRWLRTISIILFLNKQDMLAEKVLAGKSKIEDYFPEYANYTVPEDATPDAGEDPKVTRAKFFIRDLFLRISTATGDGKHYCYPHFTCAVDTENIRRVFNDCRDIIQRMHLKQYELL

T1 sequence (P21728 whole entry, the tested form may be a part): as the sequence (P21728 whole entry, the tested form may be a part) above
T1 sequence (P32121 whole entry partner, the tested form may be a part): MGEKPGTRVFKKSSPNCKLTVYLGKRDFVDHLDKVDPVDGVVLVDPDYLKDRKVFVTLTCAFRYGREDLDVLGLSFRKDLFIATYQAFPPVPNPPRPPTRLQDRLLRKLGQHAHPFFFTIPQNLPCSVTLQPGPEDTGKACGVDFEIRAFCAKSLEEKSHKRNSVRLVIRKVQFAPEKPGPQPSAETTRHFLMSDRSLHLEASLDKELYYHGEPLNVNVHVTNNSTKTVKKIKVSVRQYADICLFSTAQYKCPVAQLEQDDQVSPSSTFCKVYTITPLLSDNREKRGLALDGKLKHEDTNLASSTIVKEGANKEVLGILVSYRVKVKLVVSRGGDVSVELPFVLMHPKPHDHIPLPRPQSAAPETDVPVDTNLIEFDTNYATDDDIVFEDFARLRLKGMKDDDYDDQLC
T2 sequence (P35462 whole entry): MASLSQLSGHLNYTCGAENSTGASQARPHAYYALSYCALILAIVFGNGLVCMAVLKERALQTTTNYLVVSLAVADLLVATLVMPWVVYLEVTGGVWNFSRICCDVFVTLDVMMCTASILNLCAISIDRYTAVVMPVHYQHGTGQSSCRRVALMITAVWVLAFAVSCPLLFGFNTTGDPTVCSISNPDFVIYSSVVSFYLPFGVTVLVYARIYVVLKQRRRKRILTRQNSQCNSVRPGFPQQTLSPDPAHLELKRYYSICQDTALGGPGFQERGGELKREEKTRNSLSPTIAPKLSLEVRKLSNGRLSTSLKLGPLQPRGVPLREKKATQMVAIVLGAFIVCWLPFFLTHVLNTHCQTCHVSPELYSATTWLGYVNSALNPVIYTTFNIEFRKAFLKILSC
T2 sequence (P09471 2-354 partner): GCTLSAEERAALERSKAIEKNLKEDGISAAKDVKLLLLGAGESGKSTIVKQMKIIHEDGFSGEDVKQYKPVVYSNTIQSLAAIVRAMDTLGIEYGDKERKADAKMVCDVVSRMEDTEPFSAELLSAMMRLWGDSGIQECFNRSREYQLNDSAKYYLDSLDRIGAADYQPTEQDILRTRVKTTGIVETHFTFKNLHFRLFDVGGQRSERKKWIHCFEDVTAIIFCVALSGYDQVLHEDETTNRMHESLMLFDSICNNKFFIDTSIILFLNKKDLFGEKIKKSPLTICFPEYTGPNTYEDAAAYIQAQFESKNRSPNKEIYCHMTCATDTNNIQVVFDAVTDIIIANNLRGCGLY
T3 sequence (P14416 1-414 isoform P14416-2): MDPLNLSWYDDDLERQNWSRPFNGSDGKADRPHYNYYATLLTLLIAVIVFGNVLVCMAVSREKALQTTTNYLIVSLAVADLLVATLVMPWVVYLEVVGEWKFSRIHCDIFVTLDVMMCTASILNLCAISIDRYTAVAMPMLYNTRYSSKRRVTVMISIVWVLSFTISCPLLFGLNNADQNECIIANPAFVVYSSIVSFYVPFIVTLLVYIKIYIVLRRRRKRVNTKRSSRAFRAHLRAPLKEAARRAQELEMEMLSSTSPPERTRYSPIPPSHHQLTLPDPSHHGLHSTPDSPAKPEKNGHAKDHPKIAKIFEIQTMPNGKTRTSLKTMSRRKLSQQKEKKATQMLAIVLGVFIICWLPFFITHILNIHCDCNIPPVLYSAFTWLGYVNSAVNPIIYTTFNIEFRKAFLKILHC
T3 sequence (P09471 2-354 partner): as the sequence (P09471 2-354 partner) above

Compound | EC50 [1] | further results
NC[C@@H]1O[C@H](C23CC4CC(CC(C4)C2)C3)Cc2c1ccc(O)c2O [A77636] | A77636 and SKF82958 maintained their high potencies and efficacies in the β-arrestin-2 recruitment assay | –
Oc1cc2c(cc1O)C1c3ccccc3CNC1CC2 (centres unmarked) [DHX] | DHX and NPA behaved similarly to Gs engagement in terms of efficacy and potency | EC50 (D3R, Go activation): less efficacious at D2R and D3R-mediated Go activation than at D1R-mediated Gs activation; EC50 [2]: less efficacious at D2R and D3R-mediated Go activation than at D1R-mediated Gs activation
CCCN1CCc2cccc3c2[C@H]1Cc1ccc(O)c(O)c1-3 [NPA] | DHX and NPA behaved similarly to Gs engagement in terms of efficacy and potency | –
CN1CCc2cc(Cl)c(O)cc2[C@@H](c2ccccc2)C1 [SCH23390] | – | IC50 [3]: Dose-response curves of BRET between D1R-Rluc and Golf-Venus (same color scheme)
Oc1cc2c(cc1O)C(c1ccccc1)CNCC2 (centres unmarked) [SKF38393] | SKF81297 and SKF38393 showed reduced and minimal β-arrestin-2 recruitment, respectively | –
C=CCN1CCc2c(cc(O)c(O)c2Cl)C(c2ccccc2)C1 (centres unmarked) [SKF82958] | A77636 and SKF82958 maintained their high potencies and efficacies in the β-arrestin-2 recruitment assay | –
